# Results from paper PMC5562790 (Scientific Reports, 2017).
# Entries after “also recorded” stand apart in the source; their conditions may differ. Like-named read-outs stand apart in the source and are kept apart here.
# Experiments:
# [1] = published peptide, cited from earlier work
# From the text: Table 2 A selection of published peptide sequences derived from LL-37 with immune-modulating actions, and examples of their biological effects. | column: Biological activity
# staphopain B (SspB) = assay: S. aureus staphopain B (0.6 µg) (Sigma-Aldrich) in a total volume of 30 µl; conditions: 37 °C, up to 3 h
# [2] = target: T1, S. aureus staphopain A (ScpA) (Staphylococcus aureus, UniProt P81297); type: in vitro ADME; conditions: gel-electrophoresis (10-20% Tricine gel); MS detected cleavage of minor fragments
# T1 construct: purchased Preparatis (Krakow, Poland)
# T1 sequence (P81297 215-388): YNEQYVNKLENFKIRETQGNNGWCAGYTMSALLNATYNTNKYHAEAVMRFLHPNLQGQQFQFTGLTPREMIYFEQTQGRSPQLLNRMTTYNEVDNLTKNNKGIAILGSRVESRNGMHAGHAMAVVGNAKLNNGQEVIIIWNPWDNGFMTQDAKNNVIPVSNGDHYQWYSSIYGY
# Protocol: (§1) Proteolytic degradation of LL-37 and SDS-PAGE analysis (See Supplementary Methods S1).
# Matrix-assisted laser desorption ionization mass spectrometry (MALDI-MS) was used for the identification of […] generated peptides of LL-37. A MALDI matrix solution consisting of 5 mg/ml hydroxycinnamic acid in 50% acetonitrile, 0.1% (v/v) phosphoric acid[67] was mixed with the staphopain-generated peptides. The matrix solution contained two peptide standards [des-arg-bradykinin (m/z 904.468) and ACTH 18–39 (m/z 2465.199)] that were used for internal mass calibration in every analyte/matrix position. MALDI-MS and MS/MS analyses of the samples were performed on a 4700 Proteomics Analyzer MALDI-TOF/TOF™ mass spectrometer (Applied Biosystems, Framingham, MA). Database searching was carried out using Mascot (Matrix Science) with Swissprot as the database and with a peptide mass tolerance of 50 ppm and a fragment mass tolerance of 0.2 Da. […]
# labeled LL-37) and green (S. aureus cells) seen separately, and yellow representing co-existence of bacterial cells and the TAMRA-labeled LL-37 peptide. Binding of TAMRA labeled LL-37 to the S. aureus cells were present throughout the biofilm. […]
# Supplementary Fig. S5. […] LL-37 was incubated with and without S. aureus ScpA and analyzed using SDS-PAGE (Novex®10-20% Tricine Gel) (a), and by mass spectrometry (b). […]
# [3] = system: planktonic S. aureus (isolates from skin of patients with AD and ATCC 29213); type: cell-based, Staphylococcus aureus; conditions: summary over the tested S. aureus strains
# Protocol: Measurement of the bacterial susceptibility was determined by using a modified version of the CBD method (MBEC^TM Biofilm Inoculator, Innovotech, Edmonton, Canada)[59] following the manufacturers protocol. Briefly, to establish biofilms in vitro using the CBD, 150 μl bacterial solution of 10^5 CFU/ml in 1.5% tryptic soy broth (TSB) was supplemented with 0.3% glucose and aliquoted into each well of the MBEC plate and thereafter incubated for 24 h in a rotary incubator at 37 °C and 180 rpm. This allowed the biofilm to form on the pegs. The pegs with established biofilms were then washed once in sterile PBS (200 μl/well). […]
# The MIC values measured using the CBD are equivalent to MIC values obtained using the National Committee for Clinical Laboratory Standards (NCCLS) procedure. The MIC value, representing the concentration required to inhibit growth of planktonic bacteria, was determined from bacteria that were shed from the pegs when the lid of the CBD was placed in different concentrations of LL-37. […] MBECs were determined by analyzing the bacterial viability in the biofilm after 24 h of incubation at 37 °C either by reading the turbidity at 600 nm in a 96-well plate reader (Victor[3] 1420 multilabel counter, Perkin-Elmer) or by obtaining bacterial plate counts. The recorded MIC and MBEC values represent a typical result of three independent experiments.
# [4] = target: T2, S. aureus staphopain B (SspB) (Staphylococcus aureus, UniProt P0C1S6); assay: Proteolytic degradation of LL-37 by staphopain B, SDS-PAGE and MS; type: in vitro ADME; conditions: LL-37 3 μg with staphopain B 0.6 μg in 30 μl, 3 h, 37 °C; SDS-PAGE (10-20% Tricine gel), MALDI-MS
# T2 construct: purchased Sigma-Aldrich
# T2 sequence (P0C1S6 220-393): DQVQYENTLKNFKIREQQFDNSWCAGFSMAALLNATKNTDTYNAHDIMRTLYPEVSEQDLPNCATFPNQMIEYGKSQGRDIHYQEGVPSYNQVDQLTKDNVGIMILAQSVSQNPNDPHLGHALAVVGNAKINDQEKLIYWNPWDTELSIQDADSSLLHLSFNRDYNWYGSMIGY
# Protocol: as §1
# Matrix-assisted laser desorption ionization mass spectrometry (MALDI-MS) was used for the identification of trypsin generated peptides of LL-37. A MALDI matrix solution consisting of 5 mg/ml hydroxycinnamic acid in 50% acetonitrile, 0.1% (v/v) phosphoric acid[67] was mixed with the staphopain-generated peptides. The matrix solution contained two peptide standards [des-arg-bradykinin (m/z 904.468) and ACTH 18–39 (m/z 2465.199)] that were used for internal mass calibration in every analyte/matrix position. […]
# LL-37 (3 µg), was incubated with S. aureus staphopain B (0.6 µg) (Sigma-Aldrich, St. Louis, MO, USA) in a total volume of 30 µl for 3 h at 37 ° C. […] The materials were subsequently analysed on Novex®10-20% Tricine Gel (Life technologies, Carlsbad, CA, USA) under reducing conditions. […]
# The NF-κB/AP-1 reporter cell line THP1-XBlue™ -CD14, derived from the human monocytic THP-1 cell line, (InvivoGen, San Diego, CA, USA) was cultured according to the manufacturer’s protocol. […] NF-κB/AP-1 activation was assessed by using QUANTI-Blue™ assay according to the instructions supplied by the manufacturer. Secreted embryonic alkaline phosphatase (SEAP) was produced by the cell line upon stimulation and assessed by a SEAP detection reagent in cell supernatants. Absorbance at 600 nm was then detected. […]
compound,measurement,setting,value
LLGDFFRKSKEKIGKEFKRIVQRIKDFLRNL [LL-31],Biological activity,[1]; ref [27],"IM^1b,3"
"RKSK EKIGKEFKRI VQRIKDFLRN LVPRTES [F110, published fragment (F) derived from LL-37]",Biological activity,[1]; ref [29],"AM, IM^1c,2"
IGKEFKRI VQRIKDFLRN L [IG-19],Biological activity,"[1]; ref [27], [28]","IM^1b,2,5"
IGKEFKRI VQRIKDFLRN LVPRTES [IG-25],Biological activity,[1]; ref [27],"IM^1b,3"
LLGDFFRKSKEKIGKEFKRIVQRIK [LL-25],Biological activity,[1]; ref [27],IM^1b
LLGDFFRKSKEKIGKEFKRIVQRIKDFLRNLVPRTES,cleaved bond,staphopain B (SspB); S. aureus,E11-K12; also recorded: E16-F17; also recorded: D26-F27; also recorded: L28-R29
same,fragment found,staphopain B (SspB); Staphylococcus aureus,"LLG16, minor"
GKEFKRI VQRIKDFLRN LVPR (GKEFKRIVQRIKDFLRNLVPR),Biological activity,[1]; ref [24],"AM, IM^1c,2"
CC[C@H](C)[C@H](NC(=O)[C@H](CCCCN)NC(=O)[C@H](CCC(=O)O)NC(=O)[C@H](CCCCN)NC(=O)[C@H](CO)NC(=O)[C@H](CCCCN)NC(=O)[C@H](CCCNC(=N)N)NC(=O)[C@H](Cc1ccccc1)NC(=O)[C@H](Cc1ccccc1)NC(=O)[C@H](CC(=O)O)NC(=O)CNC(=O)[C@H](CC(C)C)NC(=O)[C@@H](N)CC(C)C)C(=O)NCC(=O)N[C@@H](CCCCN)C(=O)N[C@@H](CCC(=O)O)C(=O)N[C@@H](Cc1ccccc1)C(=O)N[C@@H](CCCCN)C(=O)N[C@@H](CCCNC(=N)N)C(=O)N[C@H](C(=O)N[C@H](C(=O)N[C@@H](CCC(N)=O)C(=O)N[C@@H](CCCNC(=N)N)C(=O)N[C@H](C(=O)N[C@@H](CCCCN)C(=O)N[C@@H](CC(=O)O)C(=O)N[C@@H](Cc1ccccc1)C(=O)N[C@@H](CC(C)C)C(=O)N[C@@H](CCCNC(=N)N)C(=O)N[C@@H](CC(N)=O)C(=O)N[C@@H](CC(C)C)C(=O)N[C@H](C(=O)N1CCC[C@H]1C(=O)N[C@@H](CCCNC(=N)N)C(=O)N[C@H](C(=O)N[C@@H](CCC(=O)O)C(=O)N[C@@H](CO)C(=O)O)[C@@H](C)O)C(C)C)[C@@H](C)CC)C(C)C)[C@@H](C)CC [LL-37],degradation by ScpA,[2],did not reveal any obvious major cleavage
same,MIC values obtained for planktonic cells,[3],10 to 20 µM
same,degradation by SspB,[4],degraded into fragments of lower molecular weight
RKSK EKIGKEFKRI VQRIKDFLRN L [RK-25],Biological activity,[1]; ref [27],"IM^1b,3"
RKSK EKIGKEFKRI VQRIKDFLRN LVPRTES [RK-31],Biological activity,"[1]; ref [23], [25]","AM, IM^3"
KSK EKIGKEFKRI VQRIKDFLRN LVPRTES [KS-30],Biological activity,"[1]; ref [23], [25], [26]","AM, IM^3,4"
LLGDFFRKSK EKIGKEFKRI V,Biological activity,[1]; ref [24],"AM, IM^2"
"GDFFRKSK EKIGKEFKRI VQRIKDFLRN LVPRTES [F106, published fragment (F) derived from LL-37]",Biological activity,[1]; ref [29],"AM, IM^2"
